Measurements as given in PubChem BioAssay AID1963434 (Molecular Pharmacology Branch, DTP, NCI, 2024).

System: 755483-174-R-J1-PDC complex spheroid growth, percent test/control
Assay: Anticancer human tumor 755483-174-R-J1-PDC patient-derived rhabdomyosarcoma cell line growth inhibition [Asc]
Conditions: for IC50: curve of first compound; for viability, T/C: stronger effect = lower value
Outline: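 Concentration series start at each agent's clinical Cmax, or at 10 microM when none is established, and drop in half-log steps; agents are applied alone or together to complex spheroids built with HUVEC and hMSC.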

[1] = second compound 0.1 µM, first compound 0.0316 µM
[2] = second compound 0.1 µM, first compound 0.1 µM
[3] = second compound 0.1 µM, first compound 0.316 µM
[4] = second compound 0.1 µM, first compound 1 µM
[5] = second compound 0.316 µM, first compound 0.0316 µM
[6] = second compound 0.316 µM, first compound 0.1 µM
[7] = second compound 0.316 µM, first compound 0.316 µM
[8] = second compound 0.316 µM, first compound 1 µM
[9] = second compound 1 µM, first compound 0.0316 µM
[10] = second compound 1 µM, first compound 0.1 µM
[11] = second compound 1 µM, first compound 0.316 µM
[12] = second compound 1 µM, first compound 1 µM
[13] = second compound 3.16 µM, first compound 0.0316 µM
[14] = second compound 3.16 µM, first compound 0.1 µM
[15] = second compound 3.16 µM, first compound 0.316 µM
[16] = second compound 3.16 µM, first compound 1 µM
[17] = second compound 10 µM, first compound 0.0316 µM
[18] = second compound 10 µM, first compound 0.1 µM
[19] = second compound 10 µM, first compound 0.316 µM
[20] = second compound 10 µM, first compound 1 µM
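Also: spheroids exposed to compounds for seven days before readout.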

## C=C(F)C(=O)N1CCN(c2nc(OCC3CCCN3C)nc3c2CCN(c2cccc4cccc(Cl)c24)C3)CC1CC#N (stereo not given) + Cc1c(S(C)(=O)=O)c(-c2cc(F)cc(N3CCN(c4ccc(NS(=O)(=O)c5ccc(NC(CCN6CCC(C(=O)OCCCP(=O)(O)O)CC6)CSc6ccccc6)c(S(=O)(=O)C(F)(F)F)c5)cc4)CC3)c2)c(-c2ccc(Cl)cc2)n1C(C)C
Second compound 0.1 µM
  IC50: 0.235 µM
Second compound 0.316 µM
  IC50: < 0.0316 µM
Second compound 1 µM
  IC50: < 0.0316 µM
Second compound 3.16 µM
  IC50: < 0.0316 µM
Second compound 10 µM
  IC50: < 0.0316 µM
[1]
  viability, T/C: 46.4%
[2]
  viability, T/C: 58.9%
[3]
  viability, T/C: 49.7%
[4]
  viability, T/C: 30.2%
Second compound 0.1 µM, first compound 3.16 µM
  viability, T/C: 8.51%
Second compound 0.1 µM, first compound 10 µM
  viability, T/C: 0.1%
[5]
  viability, T/C: 39.3%
[6]
  viability, T/C: 48.7%
[7]
  viability, T/C: 39.4%
[8]
  viability, T/C: 33.4%
Second compound 0.316 µM, first compound 3.16 µM
  viability, T/C: 10.8%
Second compound 0.316 µM, first compound 10 µM
  viability, T/C: 0.52%
[9]
  viability, T/C: 40.9%
[10]
  viability, T/C: 37.9%
[11]
  viability, T/C: 32%
[12]
  viability, T/C: 20.3%
Second compound 1 µM, first compound 3.16 µM
  viability, T/C: 5.1%
Second compound 1 µM, first compound 10 µM
  viability, T/C: 1.75%
[13]
  viability, T/C: 35%
[14]
  viability, T/C: 27%
[15]
  viability, T/C: 30.6%
[16]
  viability, T/C: 16.5%
Second compound 3.16 µM, first compound 3.16 µM
  viability, T/C: 8.95%
Second compound 3.16 µM, first compound 10 µM
  viability, T/C: 0.11%
[17]
  viability, T/C: 42.9%
[18]
  viability, T/C: 41.7%
[19]
  viability, T/C: 34%
[20]
  viability, T/C: 20.6%
Second compound 10 µM, first compound 3.16 µM
  viability, T/C: 11.8%
Second compound 10 µM, first compound 10 µM
  viability, T/C: 0.16%

## CCN1C(C(=O)NC23CCC(C(=O)O)(CC2)CC3)C(c2cccc(Cl)c2F)C2(C(=O)Nc3cc(Cl)ccc32)C12CCCCC2 (stereo not given) + Cc1c(S(C)(=O)=O)c(-c2cc(F)cc(N3CCN(c4ccc(NS(=O)(=O)c5ccc(NC(CCN6CCC(C(=O)OCCCP(=O)(O)O)CC6)CSc6ccccc6)c(S(=O)(=O)C(F)(F)F)c5)cc4)CC3)c2)c(-c2ccc(Cl)cc2)n1C(C)C
Second compound 0.1 µM
  IC50: 1.74 µM
Second compound 0.316 µM
  IC50: < 0.00949 µM
Second compound 1 µM
  IC50: < 0.00949 µM
Second compound 3.16 µM
  IC50: < 0.00949 µM
Second compound 10 µM
  IC50: 0.0268 µM
Second compound 0.1 µM, first compound 0.00949 µM
  viability, T/C: 68.7%
Second compound 0.1 µM, first compound 0.03 µM
  viability, T/C: 60.5%
Second compound 0.1 µM, first compound 0.0949 µM
  viability, T/C: 57.5%
Second compound 0.1 µM, first compound 0.3 µM
  viability, T/C: 61.4%
Second compound 0.1 µM, first compound 0.949 µM
  viability, T/C: 65.5%
Second compound 0.1 µM, first compound 3 µM
  viability, T/C: 38.7%
Second compound 0.316 µM, first compound 0.00949 µM
  viability, T/C: 49%
Second compound 0.316 µM, first compound 0.03 µM
  viability, T/C: 33.9%
Second compound 0.316 µM, first compound 0.0949 µM
  viability, T/C: 55.8%
Second compound 0.316 µM, first compound 0.3 µM
  viability, T/C: 30.4%
Second compound 0.316 µM, first compound 0.949 µM
  viability, T/C: 59.7%
Second compound 0.316 µM, first compound 3 µM
  viability, T/C: 36.1%
Second compound 1 µM, first compound 0.00949 µM
  viability, T/C: 48.3%
Second compound 1 µM, first compound 0.03 µM
  viability, T/C: 47%
Second compound 1 µM, first compound 0.0949 µM
  viability, T/C: 38.7%
Second compound 1 µM, first compound 0.3 µM
  viability, T/C: 45.5%
Second compound 1 µM, first compound 0.949 µM
  viability, T/C: 29.2%
Second compound 1 µM, first compound 3 µM
  viability, T/C: 40%
Second compound 3.16 µM, first compound 0.00949 µM
  viability, T/C: 36.8%
Second compound 3.16 µM, first compound 0.03 µM
  viability, T/C: 34.1%
Second compound 3.16 µM, first compound 0.0949 µM
  viability, T/C: 34.4%
Second compound 3.16 µM, first compound 0.3 µM
  viability, T/C: 46.9%
Second compound 3.16 µM, first compound 0.949 µM
  viability, T/C: 37.9%
Second compound 3.16 µM, first compound 3 µM
  viability, T/C: 27.5%
Second compound 10 µM, first compound 0.00949 µM
  viability, T/C: 40.6%
Second compound 10 µM, first compound 0.03 µM
  viability, T/C: 64.6%
Second compound 10 µM, first compound 0.0949 µM
  viability, T/C: 52.8%
Second compound 10 µM, first compound 0.3 µM
  viability, T/C: 38.5%
Second compound 10 µM, first compound 0.949 µM
  viability, T/C: 40.5%
Second compound 10 µM, first compound 3 µM
  viability, T/C: 45.9%

## CNC(C)C(=O)NC1CN(S(=O)(=O)c2cccc(S(=O)(=O)N3CCC4CCC(C(=O)NC(c5ccccc5)c5ccccc5)N4C(=O)C(NC(=O)C(C)NC)C3)c2)CCC2CCC(C(=O)NC(c3ccccc3)c3ccccc3)N2C1=O (stereo not given) + Cc1c(S(C)(=O)=O)c(-c2cc(F)cc(N3CCN(c4ccc(NS(=O)(=O)c5ccc(NC(CCN6CCC(C(=O)OCCCP(=O)(O)O)CC6)CSc6ccccc6)c(S(=O)(=O)C(F)(F)F)c5)cc4)CC3)c2)c(-c2ccc(Cl)cc2)n1C(C)C
Second compound 0.1 µM
  IC50: < 0.00316 µM
Second compound 0.316 µM
  IC50: < 0.00316 µM
Second compound 1 µM
  IC50: < 0.00316 µM
Second compound 3.16 µM
  IC50: < 0.00316 µM
Second compound 10 µM
  IC50: < 0.00316 µM
Second compound 0.1 µM, first compound 0.00316 µM
  viability, T/C: 27.1%
Second compound 0.1 µM, first compound 0.01 µM
  viability, T/C: 20%
[1]
  viability, T/C: 39.1%
[2]
  viability, T/C: 20.2%
[3]
  viability, T/C: 13.6%
[4]
  viability, T/C: 12.2%
Second compound 0.316 µM, first compound 0.00316 µM
  viability, T/C: 36.2%
Second compound 0.316 µM, first compound 0.01 µM
  viability, T/C: 24.1%
[5]
  viability, T/C: 15.8%
[6]
  viability, T/C: 24.4%
[7]
  viability, T/C: 14.7%
[8]
  viability, T/C: 12.1%
Second compound 1 µM, first compound 0.00316 µM
  viability, T/C: 29.8%
Second compound 1 µM, first compound 0.01 µM
  viability, T/C: 23.5%
[9]
  viability, T/C: 18.2%
[10]
  viability, T/C: 22.5%
[11]
  viability, T/C: 11.4%
[12]
  viability, T/C: 10.7%
Second compound 3.16 µM, first compound 0.00316 µM
  viability, T/C: 23.7%
Second compound 3.16 µM, first compound 0.01 µM
  viability, T/C: 15.9%
[13]
  viability, T/C: 16.7%
[14]
  viability, T/C: 12%
[15]
  viability, T/C: 9.91%
[16]
  viability, T/C: 26.8%
Second compound 10 µM, first compound 0.00316 µM
  viability, T/C: 26.3%
Second compound 10 µM, first compound 0.01 µM
  viability, T/C: 14.5%
[17]
  viability, T/C: 16.1%
[18]
  viability, T/C: 14.2%
[19]
  viability, T/C: 16.2%
[20]
  viability, T/C: 7.68%
